Assay results from patent US20080045567A1, “Therapeutic Agent for Hyperlipemia and Therapeutic Agent for Diabetes” (Kowa Co., Ltd, priority 2004, published 2008).

Experiments:
blood triglycerides [1] = experiment: Lowering of blood triglycerides by combined administration of sodium salt of compound A and calcium salt of atorvastatin in rats (Example 2); assay type: in vivo, male Wistar strain rats; conditions: rat; for blood triglycerides in comparison with the control group (in words): orally 14 days, Dunnett's test; for Reduction rate of blood triglycerides (%): blood collected after 18 h fast, vs control group
From the text: Six-week-old male Wistar strain rats (Nippon Ikagaku Jikken Doubutsu Kabushiki Kaisha) were used for the test. Throughout the experimental period, the rats were fed in a rearing room maintained at a light-dark cycle (light period lit by room lamp: 7 am to 7 pm), a temperature of 23±3 degrees C., and a humidity of 55±15%, and were allowed free access to solid feed (CE-2: CLEA Japan, Inc.) and tap water.
Calcium salt of pitavastatin and sodium salt of the compound A were suspended in an aqueous solution of 0.5% by mass of sodium carboxymethylcellulose (Iwai Chemicals Co., Ltd.) and prepared so that the dose amount became 2 mL/kg. Since calcium salt of pitavastatin contained 9.43% by mass of water, 1.1-fold by mass of the dose amount was weighed to correct. The suspension was refrigerated (4 degrees C.) and kept in a light-resistant bottle, and its preparation was carried out every 7 days.
Thirty-two rats were divided into four groups (eight rats per each group) so that blood total cholesterol and blood triglycerides are averaged. That is, the four groups consisted of a control group, a group of calcium salt of pitavastatin alone (10 mg/kg), a group of sodium salt of the compound A alone (1 mg/kg), and a group of a combination of calcium salt of pitavastatin (10 mg/kg) and sodium salt of the compound A (1 mg/kg). The drugs were orally administered once a day (at 4 pm) for 14 days repeatedly, and the control group received orally the aqueous solution of 0.5% by mass of sodium carboxymethylcellulose at 2 mL/kg. All the groups were fasted for 18 hours after the final administration. Then, blood was collected and blood triglycerides were determined.
The effect of lowering blood triglycerides by combined administration of sodium salt of the compound A and calcium salt of atorvastatin was determined as in Example 1.

blood triglycerides [2] = experiment: Lowering of blood triglycerides by combined administration of sodium salt of compound A and calcium salt of pitavastatin in rats (Example 1); assay type: in vivo, male Wistar strain rats; conditions: rat; for blood triglycerides in comparison with the control group (in words): orally 14 days, Dunnett's test; for Reduction rate of blood triglycerides (%): blood collected after 18 h fast, vs control group
Experimental: The effect of lowering blood triglycerides by combined administration of sodium salt of the compound A and calcium salt of pitavastatin was determined by the following method. Six-week-old male Wistar strain rats (Nippon Ikagaku Jikken Doubutsu Kabushiki Kaisha) were used for the test. Throughout the experimental period, the rats were fed in a rearing room maintained at a light-dark cycle (light period lit by room lamp: 7 am to 7 pm), a temperature of 23±3 degrees C., and a humidity of 55±15%, and were allowed free access to solid feed (CE-2: CLEA Japan, Inc.) and tap water. Calcium salt of pitavastatin and sodium salt of the compound A were suspended in an aqueous solution of 0.5% by mass of sodium carboxymethylcellulose (Iwai Chemicals Co., Ltd.) and prepared so that the dose amount became 2 mL/kg. Since calcium salt of pitavastatin contained 9.43% by mass of water, 1.1-fold by mass of the dose amount was weighed to correct. The suspension was refrigerated (4 degrees C.) and kept in a light-resistant bottle, and its preparation was carried out every 7 days. Thirty-two rats were divided into four groups (eight rats per each group) so that blood total cholesterol and blood triglycerides are averaged. That is, the four groups consisted of a control group, a group of calcium salt of pitavastatin alone (10 mg/kg), a group of sodium salt of the compound A alone (1 mg/kg), and a group of a combination of calcium salt of pitavastatin (10 mg/kg) and sodium salt of the compound A (1 mg/kg). The drugs were orally administered once a day (at 4 pm) for 14 days repeatedly, and the control group received orally the aqueous solution of 0.5% by mass of sodium carboxymethylcellulose at 2 mL/kg. All the groups were fasted for 18 hours after the final administration. Then, blood was collected and blood triglycerides were determined. Multigroup comparison between the control group and drug-administered group was performed with Dunnett's multiple comparison test after Bartlett's test for analysis of variance, and a significance level lower than 5% was considered to indicate significant difference.

[3] = 1 mg/kg orally once a day for 14 days

CC(C)c1c(C(=O)Nc2ccccc2)c(-c2ccccc2)c(-c2ccc(F)cc2)n1CC[C@@H](O)C[C@@H](O)CC(=O)O [Atorvastatin Ca, atorvastatin]
blood triglycerides in comparison with the control group (in words) (blood triglycerides [1]; 50 mg/kg alone): a tendency to be lowered | Reduction rate of blood triglycerides (%) (blood triglycerides [1]; 50 mg/kg orally once a day for 14 days): 7%

O=C(O)C(Cl)(Cl)CCCCCCCCCCc1ccc(Cl)cc1 [Compound A Na, 12-(4-chlorophenyl)-2,2-dichlorododecanoic acid]
blood triglycerides in comparison with the control group (in words) (blood triglycerides [2]; 1 mg/kg alone, p<0.05): a significant reduction | Reduction rate of blood triglycerides (%) (blood triglycerides [2]; [3]): 25% | blood triglycerides in comparison with the control group (in words) (blood triglycerides [1]; 1 mg/kg alone, p<0.05): a significant reduction | Reduction rate of blood triglycerides (%) (blood triglycerides [1]; [3]): 25%

O=C(O)C[C@H](O)C[C@H](O)/C=C/c1c(C2CC2)nc2ccccc2c1-c1ccc(F)cc1 [Pitavastatin Ca, (3R,5S,6E)-7-[2-cyclopropyl-4-(4-fluorophenyl)-3-quinolyl]-3,5-dihydroxy-6-heptenoic acid]
blood triglycerides in comparison with the control group (in words) (blood triglycerides [2]; 10 mg/kg alone): a tendency to be lowered | Reduction rate of blood triglycerides (%) (blood triglycerides [2]; 10 mg/kg orally once a day for 14 days): 20%
